Read-outs that look alike come from different tables or passages of the source. Numbered stars: 1 amine (or outer) side, 2 acyl side, 3 side chain; on linkers, the order of the positions; unused ones are H or OH. Bridge positions count the residues as written; N and C are the ends. Square brackets hold non-standard residues; d marks the D form. Peptide text beside a SMILES is read from it. * marks the point of attachment. Ahppa(3S,4S) = O=C(C[C@H](O)[C@H](Cc1ccccc1)N[*:1])[*:2]; Butanoyl(3,3-Me2) = CC(C)(C)CC(=O)*; Isopropoxycarbonyl = CC(C)OC(=O)*; CH2CH2 = C(C[*:2])[*:1]
Assays:
[1] = molecular target: cathepsin D (Homo sapiens, UniProt P07339); test: cathepsin D inhibition assay with fluorogenic substrate (tight-binding kinetics); type: biochemical
Sequence of cathepsin D (P07339 65-412): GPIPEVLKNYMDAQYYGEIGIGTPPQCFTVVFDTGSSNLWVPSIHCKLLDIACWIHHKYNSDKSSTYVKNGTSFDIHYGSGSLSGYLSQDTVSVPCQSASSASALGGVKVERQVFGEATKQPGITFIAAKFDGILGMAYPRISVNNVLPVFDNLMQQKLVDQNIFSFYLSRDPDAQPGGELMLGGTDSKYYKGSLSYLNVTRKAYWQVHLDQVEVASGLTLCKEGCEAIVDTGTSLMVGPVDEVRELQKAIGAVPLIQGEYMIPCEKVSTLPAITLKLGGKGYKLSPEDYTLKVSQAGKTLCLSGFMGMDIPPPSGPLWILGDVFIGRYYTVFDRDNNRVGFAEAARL
Method: (§1) Typically, 485 μl of 50 mM Gly-HC1 buffer, pH 3.5 (in the case of cathepsin D), or 100 mM sodium acetate buffer, pH 5.0 (in the case of plasmepsin 2), was mixed with 5 μl of DMSO and 5 μl of titrated protease (final concentration 0.2-10 nM) and incubated 3 min at 37° C. The reaction was initiated by the addition of 5 μl of substrate stock solution in DMSO. Increase in fluorescence intensity at the emission maximum of 487 nm (excitation wavelength was 349 nm) was monitored as a function of time using an Aminco Bowman-2 luminescence spectrometer (SLM Instruments, Inc.).
(§2) The initial rate of hydrolysis was calculated by a second degree polynomial fit using SLM AB2 2.0 operating software. Kinetic parameters were determined by nonlinear regression fitting of initial rate versus substrate concentration data to the Michaelis-Menten equation using the program Enzfitter version 1.05 (Leatherbarrow, R. J. 1987. Enzfitter, a program for non-linear regression analysis. Elsevier Scientific, New York).
For inhibition studies inhibitors were prepared as stock solutions at different concentrations in DMSO. In a typical experiment 485 μl of the appropriate buffer was mixed with 5 μl of inhibitor stock solution and 5 μ of titrated protease (final concentration 0.2-10 nM) and preincubated 3 min at 37° C. The reaction was initiated by the addition of 5 μl of substrate stock solution in DMSO. For data analysis the mathematical model for tight-binding inhibitors (Williams, J. W., and Morrison, J. F. Methods Enzymol. 63:437 (1979)) was used. The data were fitted by nonlinear regression analysis to the equation
V=V0 /2Et ({[K1 (1+S/Km)+It -Et ]^2
+4Ki (1+S/Km)Et }^1/2 -[Ki (1+S/Km)+It

[2] = molecular target: plasmepsin II (PMII) (Plasmodium falciparum, UniProt P46925); test: biochemical
Sequence of plasmepsin II (PMII) (P46925 125-453): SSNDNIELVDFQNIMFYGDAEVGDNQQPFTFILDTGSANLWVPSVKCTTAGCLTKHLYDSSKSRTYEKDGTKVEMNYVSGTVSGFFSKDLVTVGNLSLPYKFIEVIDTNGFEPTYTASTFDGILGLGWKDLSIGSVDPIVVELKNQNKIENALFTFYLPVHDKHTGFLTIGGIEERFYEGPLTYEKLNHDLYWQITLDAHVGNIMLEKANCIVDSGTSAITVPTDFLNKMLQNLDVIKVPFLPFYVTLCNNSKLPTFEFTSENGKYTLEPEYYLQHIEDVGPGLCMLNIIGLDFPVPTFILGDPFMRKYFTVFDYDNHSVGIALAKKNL
Method: as §1, §2
For inhibition studies inhibitors were prepared as stock solutions at different concentrations in DMSO. In a typical experiment 485 μl of the appropriate buffer was mixed with 5 μl of inhibitor stock solution and 5 μ of titrated protease (final concentration 0.2-10 nM) and preincubated 3 min at 37° C. The reaction was initiated by the addition of 5 μl of substrate stock solution in DMSO. […]

[3] = molecular target: plasmepsin I (PMI) (Plasmodium falciparum, UniProt P39898); test: biochemical
Sequence of plasmepsin I (PMI) (P39898 124-452): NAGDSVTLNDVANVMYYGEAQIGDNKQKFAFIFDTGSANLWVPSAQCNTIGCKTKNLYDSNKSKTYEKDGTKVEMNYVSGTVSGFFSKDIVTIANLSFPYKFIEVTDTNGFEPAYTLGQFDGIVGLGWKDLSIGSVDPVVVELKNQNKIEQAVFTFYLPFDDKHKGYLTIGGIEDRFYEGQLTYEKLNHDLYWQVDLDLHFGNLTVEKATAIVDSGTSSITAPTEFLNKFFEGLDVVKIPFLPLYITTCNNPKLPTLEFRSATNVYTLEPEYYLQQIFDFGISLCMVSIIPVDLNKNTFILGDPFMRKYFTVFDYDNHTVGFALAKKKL

Compound | Ki [1] | further results
CCCCCNC(=O)[C@@H](NC(=O)C[C@H](O)[C@H](Cc1ccccc1)NC(=O)CCCC)C(C)C | 400 nM | –
CC(C)C[C@H](NC(=O)[C@H](C)NC(=O)C[C@H](O)[C@H](Cc1ccccc1)NC(=O)[C@@H](NC(=O)CN(C)C)C(C)C)C(N)=O | – | IC50 [1]: 1000 nM
CC(C)C[C@H](NC(=O)[C@H](C)NC(=O)C[C@H](O)[C@H](Cc1ccccc1)NC(=O)[C@@H](NC(=O)Cc1ccccn1)C(C)C)C(N)=O | 20 nM | –
CC(C)C[C@H](NC(=O)[C@H](C)NC(=O)C[C@H](O)[C@H](Cc1ccccc1)NC(=O)[C@@H](NC(=O)OC(C)C)C(C)C)C(N)=O | – | IC50 [1]: 20 nM
CC(C)[C@@H]1NC(=O)C[C@H](O)[C@H](Cc2ccccc2)NC(=O)[C@@H](NC(=O)[C@@H](NC(=O)CC(C)(C)C)C(C)C)CSCCCSC[C@@H](C(=O)NCC(N)=O)NC1=O | 1.5 nM | –
CC(C)[C@@H]1NC(=O)C[C@H](O)[C@H](Cc2ccccc2)NC(=O)[C@@H](NC(=O)[C@@H](NC(=O)CC(C)(C)C)C(C)C)CSCCCCSC[C@@H](C(=O)NCC(N)=O)NC1=O | 0.1 nM | –
CC(C)C[C@H](NC(=O)[C@@H](NC(=O)C[C@H](O)[C@@H]1CCCCNC(=O)C[C@H](NC(=O)CC(C)(C)C)C(=O)N[C@@H](C(C)C)C(=O)N1)C(C)C)C(=O)NCC(N)=O | 2.5 nM | –
CC(C)C[C@H](NC(=O)[C@H](C)NC(=O)C[C@H](O)[C@H](Cc1ccccc1)NC(=O)[C@@H](NC(=O)[C@@H](NC(=O)OC(C)C)C(C)C)C(C)C)C(N)=O (Isopropoxycarbonyl-VV[Ahppa(3S,4S)]AL-NH2) | 0.24 nM | –
CC(C)[C@@H]1NC(=O)C[C@H](O)[C@H](Cc2ccccc2)NC(=O)[C@@H](NC(=O)[C@@H](NC(=O)CC(C)(C)C)C(C)C)CSSC[C@@H](C(=O)NCC(N)=O)NC1=O ({Butanoyl(3,3-Me2)}-VC[Ahppa(3S,4S)]VCG-NH2; disulfide 2-5) | 150 nM | –
CC(C)[C@@H]1NC(=O)C[C@H](O)[C@H](Cc2ccccc2)NC(=O)[C@@H](NC(=O)[C@@H](NC(=O)CC(C)(C)C)C(C)C)CSCCSC[C@@H](C(=O)NCC(N)=O)NC1=O ({Butanoyl(3,3-Me2)}-VC[Ahppa(3S,4S)]VCG-NH2; linker 2-5 via CH2CH2) | 1.9 nM | –
CC(C)[C@@H]1NC(=O)C[C@H](O)[C@H](Cc2ccccc2)NC(=O)[C@@H](NC(=O)[C@@H](NC(=O)CC(C)(C)C)C(C)C)CCC(=O)NCCCC[C@@H](C(=O)NCC(N)=O)NC1=O ({Butanoyl(3,3-Me2)}-VE[Ahppa(3S,4S)]VKG-NH2; lactam 2-5) | 2.3 nM | –
CC(C)[C@@H]1NC(=O)C[C@H](O)[C@H](Cc2ccccc2)NC(=O)[C@@H](NC(=O)[C@@H](NC(=O)CC(C)(C)C)C(C)C)CCCCNC(=O)CC[C@@H](C(=O)NCC(N)=O)NC1=O ({Butanoyl(3,3-Me2)}-VK[Ahppa(3S,4S)]VEG-NH2; lactam 2-5) | 1.4 nM | –
CC(C)C[C@H](NC(=O)[C@@H](NC(=O)C[C@H](O)[C@H](Cc1ccccc1)NC(=O)[C@H](CC(=O)O)NC(=O)[C@@H](NC(=O)CC(C)(C)C)C(C)C)C(C)C)C(=O)NCC(N)=O [(10), Tha--Val--Asp--Pst--Val--Leu--Gly--NH2] ({Butanoyl(3,3-Me2)}-VD[Ahppa(3S,4S)]VLG-NH2) | 2.1 nM | –
CC(C)C[C@H](NC(=O)[C@H](C)NC(=O)C[C@H](O)[C@H](Cc1ccccc1)NC(=O)[C@@H](NC(=O)c1ccccn1)C(C)C)C(N)=O [drawing 15] | – | Ki ([1]; target named only in b168/b175 (cathepsin D), elsewhere implied, read-out: Ki): 21 nM
CC(C)C[C@H](NC(=O)[C@@H](NC(=O)C[C@H](O)[C@@H]1CCCCNC(=O)CC[C@H](NC(=O)CC(C)(C)C)C(=O)N[C@@H](C(C)C)C(=O)N1)C(C)C)C(=O)NCC(N)=O [drawing 29] | 0.26 nM | –
CC(C)C[C@H](NC(=O)[C@@H](NC(=O)C[C@H](O)[C@@H]1CCCCNC(=O)CC[C@H](NC(=O)CC(C)(C)C)C(=O)N[C@@H](C(C)C)C(=O)N1)C(C)C)C(=O)NCC(N)=O [drawing 40] | – | Ki [2]: 0.2 nM; Ki [3]: 22 nM
CC(C)C[C@H](NC(=O)[C@H](C)NC(=O)C[C@H](O)[C@H](Cc1ccccc1)NC(=O)[C@@H](NC(=O)c1ccccn1)C(C)C)C(N)=O [drawing 42] | – | Ki [2]: 0.9 nM; Ki [3]: 16 nM
